Data taken from ChEMBL document CHEMBL4808243, “Harmine-inspired design and synthesis of benzo[d]imidazo[2,1-b]thiazole derivatives bearing 1,3,4-oxadiazole moiety as potential tumor suppressors” (Bioorg Med Chem, 2021).
The source made the active and inactive calls. The calls are words filed in the database; no cut-off is given here.

Experiments:
Format in all cases: functional, cell-based
A549 [1] = assay: Antiproliferative activity against human A549 cells assessed as inhibition of cell growth incubated for 72 hrs by MTT assay; conditions: A549, 72 h
NCI-H2228 = assay: Antiproliferative activity against human EML4-ALK positive H2228 cells assessed as inhibition of cell growth incubated for 72 hrs by MTT assay; conditions: NCI-H2228, 72 h
A549 [2] = assay: Induction of apoptosis in human A549 cells by flow cytometry analysis
A549 [3] = assay: Inhibition of epithelial-mesenchymal transition in human A549 cells assessed as suppression of Twist 1 expression measured after 24 hrs by Western blot analysis; conditions: dose 0.5-2 µM
A549 [4] = assay: Inhibition of epithelial-mesenchymal transition in human A549 cells assessed as suppression of Twist 1 expression at 17 uM measured after 24 hrs by Western blot analysis

| SMILES | IC50 (A549 [1]) | IC50 (NCI-H2228) | Activity (A549 [2]) | Activity (A549 [3]) | Activity (A549 [4]) |
| --- | --- | --- | --- | --- | --- |
| Cc1nc2sc3ccccc3n2c1-c1nnc(CCN2CCCC2)o1 | 12.2 µM | 23.5 µM |  |  |  |
| CCCN1CCN(CCc2nnc(-c3c(C)nc4sc5ccccc5n34)o2)CC1 | 11.1 µM | 22.2 µM |  |  |  |
| CCN(CC)Cc1nnc(-c2c(C)nc3sc4ccccc4n23)o1 | 10.7 µM | 21.6 µM |  |  |  |
| Cc1nc2sc3ccccc3n2c1-c1nnc(CN(C)C)o1 | 9.26 µM | 15.3 µM |  |  |  |
| CCN(CC)CCc1nnc(-c2c(C)nc3sc4ccccc4n23)o1 | 9.55 µM | 23.9 µM |  |  |  |
| Cc1nc2sc3ccccc3n2c1-c1nnc(CCN2CCC(C)CC2)o1 | 2.38 µM | 13.4 µM |  |  |  |
| Cc1nc2sc3ccccc3n2c1-c1nnc(CCN2CCCCC2)o1 | 2.03 µM | 9.8 µM | inactive | Dose-Dependent Effect |  |
| Cc1nc2sc3ccccc3n2c1-c1nnc(CCN2CC(O)C2)o1 | 9.63 µM | 22.5 µM |  |  |  |
| Cc1nc2sc3ccccc3n2c1-c1nnc(CN2CCC(C)CC2)o1 | 12.8 µM | 23.1 µM |  |  |  |
| CCCN1CCN(Cc2nnc(-c3c(C)nc4sc5ccccc5n34)o2)CC1 | 13.7 µM | 21.8 µM |  |  |  |
| COc1ccc2c(c1)[nH]c1c(C)nccc12 [HARMINE] | 17.1 µM | 31.1 µM |  |  | Active |
| Cc1nc2sc3ccccc3n2c1-c1nnc(CN2CCN(CCO)CC2)o1 | 4.41 µM | 14.9 µM |  |  |  |
| Cc1nc2sc3ccccc3n2c1-c1nnc(CCN(C)C)o1 | 11.9 µM | 19 µM |  |  |  |

The remaining compounds from weak to strong by IC50 (A549 [1]), led by results:

| IC50 (A549 [1]) | IC50 (NCI-H2228) | SMILES | Activity (A549 [2]) | Activity (A549 [3]) | Activity (A549 [4]) |
| --- | --- | --- | --- | --- | --- |
| 15.1 µM | 19.2 µM | Cc1nc2sc3ccccc3n2c1-c1nnc(CN2CCCCC2)o1 |  |  |  |
| 15 µM | 18.6 µM | Cc1nc2sc3ccccc3n2c1-c1nnc(CCNC2CCCC2)o1 |  |  |  |
| 15 µM | 12.2 µM | Cc1nc2sc3ccccc3n2c1-c1nnc(CN2CCC(O)CC2)o1 |  |  |  |
| 12.3 µM | 27.2 µM | Cc1nc2sc3ccccc3n2c1-c1nnc(CN2CC(O)C2)o1 |  |  |  |
| 10.7 µM | 16.5 µM | Cc1nc2sc3ccccc3n2c1-c1nnc(CCNCCO)o1 |  |  |  |
| 8.46 µM | 17.8 µM | Cc1nc2sc3ccccc3n2c1-c1nnc(CNCCO)o1 |  |  |  |
| 7.7 µM | 26.5 µM | Cc1nc2sc3ccccc3n2c1-c1nnc(CN2CCCC2)o1 |  |  |  |
| 7.66 µM | 15.4 µM | Cc1nc2sc3ccccc3n2c1-c1nnc(CCN2CCC(O)CC2)o1 |  |  |  |
| 6.95 µM | 14 µM | Cc1nc2sc3ccccc3n2c1-c1nnc(CCN2CCN(CCO)CC2)o1 |  |  |  |
| 3.92 µM | 17.4 µM | Cc1nc2sc3ccccc3n2c1-c1nnc(CNC2CCCC2)o1 |  |  |  |
